Test results as given in US20100234220A1, “Oxooxetanes as Fungicidal Agents” (Bayer CropScience AG, priority 2006, published 2010).

Key:
[1] = system: Venturia inaequalis; test: Venturia test (apple)/protective; type: in vivo; settings: protective, 100 ppm, evaluation 10 days after inoculation
Experimental: Venturia Test (Apple)/Protective [table] To produce a suitable preparation of active compound, 1 part by weight of active compound is mixed with the stated amounts of solvents and emulsifier, and the concentrate is diluted with water to the desired concentration. To test for protective activity, young plants are sprayed with the preparation of active compound at the stated application rate. After the spray coating has dried on, the plants are inoculated with an aqueous conidia suspension of the apple scab pathogen Venturia inaequalis and then remain in an incubation cabin at about 20° C. and 100% relative atmospheric humidity for 1 day. The plants are then placed in a greenhouse at about 21° C. and a relative atmospheric humidity of about 90%.

[2] = logP determination by HPLC (gradient method, 0.08% HCO2H)

Compound	efficacy [1]	chromatographic logP [2]
CC[C@H](C)[C@@H]1C(=O)O[C@H]1C(=O)NCc1cc(OC)cc(OC)c1 [Example 1, (3S)-(1S-Methylpropyl)-(2R)-(3,5-dimethoxybenzylaminocarbonyl)-4-oxooxetane]	≥ 70%	
CC[C@H](C)[C@@H]1C(=O)O[C@H]1C(=O)NCc1ccc(Cl)cc1 [Example 2, (2R,3S)—N-(4-chlorobenzyl)-3-[(1S)-1-methylpropyl]-4-oxooxetane-2-carboxamide]		3.04
CC[C@H](C)[C@@H]1C(=O)O[C@H]1C(=O)Nc1cc(OC)c(OC)c(OC)c1 [Example 3, (2R,3S)-3-[(1S)-1-methylpropyl]-4-oxo-N-(3,4,5-trimethoxyphenyl)oxetane-2-carboxamide]		2.5
